According to patent US9056840B2, “Coelenterazine analogues and coelenteramide analogues” (JNC Corporation, priority 2010, dated 2015):

Experiments:
Assay type in all cases: physicochemical
[1] = Fluorescence spectra of coelenteramide analogue alone (absence of apoaequorin); conditions: analogue alone 8 μg/ml; for Coelenteramide (Buffer containing CaCl2) Fluorescence intensity (rlu) / Coelenteramide (Buffer containing CaCl2) Maximum fluorescence wavelength λmax (nm): 10 mM CaCl2 buffer pH 7.6, excitation 337 nm; for Coelenteramide (EDTA-containing buffer) Fluorescence intensity (rlu) / Coelenteramide (EDTA-containing buffer) Maximum fluorescence wavelength λmax (nm): 10 mM EDTA buffer pH 7.6, excitation 337 nm
Method: (§1) The fluorescence spectra were determined as follows. For coelenteramide analogue alone, the fluorescence was measured according to the procedures for semi-synthetic gFP and semi-synthetic BFP described in EXAMPLES 11 and 12, except for in the absence of apoaequorin, using 1 ml of 50 mM Tris-HCl (pH 7.6) containing 10 mM EDTA and 1 mM DTT or 1 ml of 50 mM Tris-HCl (pH 7.6) containing 10 mM CaCl2 and 1 mM DTT, in the final concentration of coelenteramide analogue adjusted to 8 μg/ml. The fluorescence spectra were measured at 25° C. in a quartz cell (10 mm light path length) using a Jasco FP-6500 spectrofluorometer (excitation wavelength: 337 nm, emission/excitation bandwidth: 3 nm; response: 0.5 sec, scan speed, 1000 nm/min).

[2] = biological target: T1, apoaequorin (Aequorea victoria, UniProt P07164); assay: Fluorescence spectra of semi-synthetic gFP (coelenteramide analogue + apoaequorin, EDTA); conditions: 10 mM EDTA buffer, excitation 337 nm
T1 construct: purchased Chisso Corporation
Method: Semi-synthetic gFP was prepared from recombinant apoaequorin and coelenteramide analogues as follows. In 1 ml of 50 mM Tris-HC 1 (pH 7.6) containing 10 mM EDTA and 1 mM DTT, apoaequorin (0.2 mg) was mixed with 8 μl of a coelenteramide analogue (1 μg/μl in anhydrous methanol). The mixture was allowed to stand 4° C. for 16 hours to prepare semi-synthetic gFP-like protein (hereinafter sometimes simply referred to as “semi-synthetic gFP”).
as §1

[3] = biological target: T1, apoaequorin; assay: Fluorescence spectra of semi-synthetic BFP (coelenteramide analogue + apoaequorin, CaCl2); conditions: 10 mM CaCl2 buffer, excitation 337 nm
Method: Semi-synthetic gFP was prepared from recombinant apoaequorin and coelenteramide analogues as follows. In 1 ml of 50 mM Tris-HC 1 (pH 7.6) containing 10 mM CaCl2 and 1 mM DTT, apoaequorin (0.2 mg) was mixed with 8 μl of a coelenteramide analogue (1 μg/μl in anhydrous methanol). The mixture was allowed to stand at 4° C. for 16 hours to prepare semi-synthetic BFP-like protein (hereinafter sometimes simply referred to as “semi-synthetic BFP”).
as §1

T1 sequence (P07164 other isoform, or with tags, fused parts or gaps with the stated changes): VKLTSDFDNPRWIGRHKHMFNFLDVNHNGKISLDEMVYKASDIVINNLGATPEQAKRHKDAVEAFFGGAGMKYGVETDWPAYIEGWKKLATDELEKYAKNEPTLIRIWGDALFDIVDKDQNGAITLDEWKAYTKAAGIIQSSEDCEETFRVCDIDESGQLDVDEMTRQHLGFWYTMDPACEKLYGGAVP

Compound | Coelenteramide (Buffer containing CaCl2) Fluorescence intensity (rlu) [1] [rlu] | Coelenteramide (Buffer containing CaCl2) Maximum fluorescence wavelength λmax (nm) [1] [nm] | Coelenteramide (EDTA-containing buffer) Fluorescence intensity (rlu) [1] [rlu] | Coelenteramide (EDTA-containing buffer) Maximum fluorescence wavelength λmax (nm) [1] [nm] | Semi-synthetic gFP (EDTA-containing buffer) Fluorescence intensity (rlu) [2] [rlu] | Semi-synthetic gFP (EDTA-containing buffer) Maximum fluorescence wavelength λmax (nm) [2] [nm] | Fluorescence intensity [3] [rlu] | Semi-synthetic BFP (Buffer containing CaCl2) Maximum fluorescence wavelength λmax (nm) [3] [nm]
O=C(Cc1ccc(O)cc1)Nc1ncc(-c2ccc(O)cc2)nc1-c1ccccc1 [Compound 4a, 2-(4-Hydroxyphenyl)-N-[5-(4-hydroxyphenyl)-3-phenylpyrazin-2-yl]acetamide] | 2.0 | 467.5 | 1.9 | 471.0 | 82.9 | 521.5 | 148.9 | 507.5
O=C(Cc1ccc(O)cc1)Nc1ncc(-c2ccc(O)cc2)nc1/C=C/c1ccccc1 [Compound 4b] | 9.4 | 494.5 | 7.1 | 495.5 | 43.2 | 530.0 | 52.7 | 544.5
C=C(c1ccccc1)c1nc(-c2ccc(O)cc2)cnc1NC(=O)Cc1ccc(O)cc1 [Compound 4c, 2-(4-Hydroxyphenyl)-N-[5-(4-hydroxyphenyl)-3-(1-phenylvinyl)pyrazin-2-yl]acetamide] | 12.4 | 471.0 | 11.8 | 475.5 | 32.1 | 499.0 | 25.6 | 492.5
O=C(Cc1ccc(O)cc1)Nc1ncc(-c2ccc(O)cc2)nc1-c1cccc2ccccc12 [Compound 4d, 2-(4-Hydroxyphenyl)-N-[5-(4-hydroxyphenyl)-3-(naphthalen-1-yl)pyrazin-2-yl]acetamide] | 12.9 | 463.5 | 12.4 | 462.5 | 58.8 | 504.5 | 98.3 | 487.0
O=C(Cc1ccc(O)cc1)Nc1ncc(-c2ccc(O)cc2)nc1-c1ccc2ccccc2c1 [Compound 4e, 2-(4-Hydroxyphenyl)-N-[5-(4-hydroxyphenyl)-3-(naphthalen-2-yl)pyrazin-2-yl]acetamide] | 28.6 | 478.0 | 28.9 | 478.0 | 72.6 | 487.0 | 85.6 | 492.5
O=C(Cc1ccc(O)cc1)Nc1ncc(-c2ccc(O)cc2)nc1-c1cccs1 [Compound 4f, 2-(4-Hydroxyphenyl)-N-[5-(4-hydroxyphenyl)-3-(thiophen-2-yl)pyrazin-2-yl]acetamide] | 2.2 | 447.0 | 2.3 | 448.5 | 70.5 | 536.5 | 96.4 | 527.0
O=C(Cc1ccc(O)cc1)Nc1ncc(-c2ccc(O)cc2)nc1-c1ccsc1 [Compound 4g, 2-(4-Hydroxyphenyl)-N-[5-(4-hydroxyphenyl)-3-(thiophen-3-yl)pyrazin-2-yl]acetamide] | 6.1 | 470.5 | 5.5 | 473.0 | 108.5 | 512.5 | 195.7 | 501.5
O=C(Cc1ccc(O)cc1)Nc1ncc(-c2ccc(O)cc2)nc1-c1cc2ccccc2s1 [Compound 4h, N-[3-(Benzo[b]thiophen-2-yl)-5-(4-hydroxyphenyl)pyrazin-2-yl]-2-(4-hydroxyphenyl) acetamide] | 101.2 | 426.5 | 115.2 | 426.5 |  |  | 153.3 | 427.0
O=C(Cc1ccc(O)cc1)Nc1ncc(-c2ccc(O)cc2)nc1-c1ccc(-c2cccs2)s1 [Compound 4m, N-[3-(2,2′-Bithiophen-5-yl)-5-(4-hydroxyphenyl)pyrazin-2-yl]-2-(4-hydroxyphenyl) acetamide] |  |  |  |  | 163.8 | 482.5 | 182.4 | 457.5
CN(C)c1ccc(-c2nc(-c3ccc(O)cc3)cnc2NC(=O)Cc2ccc(O)cc2)cc1 [Compound 4n, N-[3-{4-(Dimethylamino)phenyl}-5-(4-hydroxyphenyl)pyrazin-2-yl]-2-(4-hydroxyphenyl)acetamide] |  |  |  |  | 151.5 | 485.5 | 231.3 | 487.5
O=C(Cc1ccc(O)cc1)Nc1ncc(-c2ccc(O)cc2)nc1Br [Compound 4t, N-[3-Bromo-5-(4-hydroxyphenyl)pyrazin-2-yl]-2-(4-hydroxyphenyl)acetamide] | 12.1 | 482.0 | 11.8 | 480.5 | 22.0 | 482.5 |  | 
O=C(Nc1ccc(O)cc1)Nc1ncc(-c2ccc(O)cc2)nc1Cc1ccccc1 [Compound 4u, 1-[3-Benzyl-5-(4-hydroxyphenyl)pyrazin-2-yl]-3-(4-hydroxyphenyl)urea] | 0.9 | 445.5 | 0.7 | 440.5 | 11.4 | 494.5 |  | 
O=C(Nc1ncc(-c2ccc(O)cc2)nc1Cc1ccccc1)c1ccc(O)cc1 [Compound 4x, N-[3-Benzyl-5-(4-hydroxyphenyl)pyrazin-2-yl]-4-hydroxybenzamide] | 1.4 | 450.0 | 1.3 | 449.0 |  |  | 36.8 | 485.0
O=C(Nc1ncc(-c2ccc(O)cc2)nc1Cc1ccccc1)c1cccc(O)c1 [Compound 4y, N-[3-Benzyl-5-(4-hydroxyphenyl)pyrazin-2-yl]-3-hydroxybenzamide] | 1.4 | 457.0 | 1.3 | 456.0 | 44.8 | 492.0 |  | 
